Experimental data taken from ChEMBL document CHEMBL3507680, “University of Dundee, Gates Library screen for HepG2 cell viability”.

Experiment: Human HepG2 cell viability assay in 384 well format
Format: toxicity, cell-based
Set-up: dose 125 nL, time 70.5 hour; concentration not given beside the values
Settings: HepG2 cells, read-out: Inhibition

Row | SMILES | cytotoxicity at 70.5 h
1 | CC1CCCN(Cc2coc(-c3cccc(F)c3)n2)C1 (stereo not given) | -5.26%
2 | Cc1nc(CN2CCCC2Cn2cncn2)no1 (stereo not given) | 13.1%
3 | CC(C)Cc1nc(CN2CCCC2Cn2cncn2)no1 (stereo not given) | -7.43%
4 | COCCc1noc(CN2CCCCC2Cn2cncn2)n1 (stereo not given) | -8.74%
5 | CC(C)c1nc(CN2CCCC2Cn2cncn2)no1 (stereo not given) | 5.22%
6 | CCc1nc(CNCC2CCCN2c2cccnn2)cs1 (stereo not given) | -6.05%
7 | CC(C)c1nc(CNCC2CCCN2c2cccnn2)cs1 (stereo not given) | -8.04%
8 | c1ccc(-c2nc(CN3CCCC3Cn3cncn3)no2)cc1 (stereo not given) | -13.3%
9 | Cc1ncsc1C(=O)N(C)Cc1ccsc1 | -12.2%
10 | CCN(CC1COc2ccccc2O1)C(=O)NCCCn1cncn1 (stereo not given) | -10.8%
11 | O=C(Cn1nc(-c2ccc(F)cc2)oc1=O)NCCc1ccccc1 | -10.7%
12 | Cc1nn(C)c(C)c1C(=O)NCc1ccnc(OCC(F)(F)F)c1 | -4.39%
13 | COCCn1cc(NC(=O)NCC(c2cccc(F)c2)N(C)C)cn1 (stereo not given) | -2.22%
14 | Cc1cc(C)n(-c2ccc(CNCc3ccc(C)o3)cn2)n1 | -7.08%
15 | CCn1cc(NC(=O)NCC(c2ccsc2)N(C)C)cn1 (stereo not given) | -6.99%
16 | O=C(Nc1ccncc1)N(CCO)Cc1ccsc1 | -20%
17 | COc1ccc(OC2CCN(C(=O)c3ccc(C)[nH]c3=O)CC2)cc1 | -5.37%
18 | CCN(CC1COc2ccccc2O1)C(=O)CCn1cncn1 (stereo not given) | -5.89%
19 | Cc1oncc1C(=O)NCc1ccnc(OCC(F)(F)F)c1 | 11%
20 | NC(=O)c1cnn2c1NCC(CNCCOc1ccccc1)C2 (stereo not given) | -5.14%
21 | CC(=O)NCc1ccc(C(=O)NC2CCc3nc(C)cn3C2)o1 (stereo not given) | -3.32%
22 | Cc1nc(CN2CCN(C(=O)NC(C)Cn3ccnc3)CC2)cs1 (stereo not given) | -0.978%
23 | COc1c(CNC(c2ccccc2)c2nccn2C)c(C)nn1C (stereo not given) | -0.0475%
24 | COCC(=O)NC(C)Cc1ccc(Br)cc1 (stereo not given) | 2.28%

Row | SMILES | cytotoxicity at 70.5 h
25 | Cc1cc(C)cc(C(=O)Nc2cn[nH]c2)c1 | -8.68%
26 | COCC(=O)NC(C)Cc1cccc(Cl)c1 (stereo not given) | 5.75%
27 | CCN(Cc1ccc2c(c1)OCO2)C(=O)c1cccnc1O | -5.82%
28 | CN(Cc1ccc(O)cc1)C(=O)NC1CCCN(c2ncccn2)C1 (stereo not given) | -3.14%
29 | CC1CCCN(C(=O)NCCCn2cncn2)C1 (stereo not given) | -4.06%
30 | CC(Cn1ccnc1)NC(=O)N1CCN(Cc2ccsc2)CC1 (stereo not given) | -2.59%
31 | CN1CCCC1CNC(=O)CCCOc1ccc(Cl)cc1 (stereo not given) | -2.04%
32 | O=C(CCc1nc2ccccc2[nH]1)N1CCCC(n2cccn2)C1 (stereo not given) | 2.61%
33 | Cc1occc1C(=O)Nc1cnn(CCN2CCOCC2)c1 | 16.8%
34 | O=C(CCS(=O)(=O)c1ccccc1)N1CCCC(n2cccn2)C1 (stereo not given) | -2.57%
35 | Cc1ccccc1C(=O)Nc1cnn(CCN2CCOCC2)c1 | 5.4%
36 | CNc1nc(CNC(=O)Nc2ccccc2C(F)(F)F)cs1 | -2.38%
37 | CNc1nc(CNC(=O)Nc2cccc(Cl)c2OC)cs1 | -3.54%
38 | Cc1nc(C2CCCN2CCS(C)(=O)=O)no1 (stereo not given) | 21.3%
39 | COc1ccc(CNCc2c(C(C)C)nn(C)c2OC)cn1 | -0.773%
40 | CSCCCN1CCCC1c1noc(C(C)C)n1 (stereo not given) | -0.353%
41 | CCCN(CCC)C(=O)CN(C)C1CCc2ccccc21 (stereo not given) | -7.56%
42 | CC(=O)N1CCCN(C(=O)CCOc2ccc(C(C)C)cc2)CC1 | 21.2%
43 | COc1ccc(CN2CCCN(C(=O)C(C)n3ccnc3)CC2)cc1 (stereo not given) | -4.32%
44 | Fc1ccc(-c2nc(CNCCn3cccn3)cs2)cc1 | 0.385%
45 | CCS(=O)(=O)CCN1CCCC1c1noc(C)n1 (stereo not given) | -8.31%
46 | CC(=O)NCC1CCN(C(=O)CCOc2ccc(C(C)C)cc2)CC1 | -0.488%
47 | COc1c(CNCc2ccc(N3CCCC3)nc2)c(C(C)C)nn1C | -9.28%
48 | CC(C)c1ccc(OCCC(=O)N2CCCC(C(N)=O)C2)cc1 (stereo not given) | -5.32%

Row | SMILES | cytotoxicity at 70.5 h
49 | CCn1c(CN2CCN(CCO)CC2)nc2c(F)cccc21 | -4.39%
50 | Cc1cccc(C(=O)NC(C)CN2CCCC2=O)n1 (stereo not given) | 21%
51 | CC(C(=O)N1CCN(Cc2ccc(C#N)cc2)CC1)n1ccnc1 (stereo not given) | -0.223%
52 | Cc1nc(-c2ccsc2)ccc1C(=O)NC(C)CN1CCOCC1 (stereo not given) | -3.57%
53 | Cc1ccc(CC(=O)N2CCN(CC(O)C(C)(C)C)CC2)cn1 (stereo not given) | 0.113%
54 | Cc1ccc(CC(=O)N2CCN(CC(C)O)CC2)cn1 (stereo not given) | -5.27%
55 | CCNc1cc2c(nn1)CCN(C(=O)c1cccnc1N(C)C)C2 | -1.46%
56 | CCc1nc(C2CCCN2CCCSC)no1 (stereo not given) | -4.43%
57 | Cc1ccccc1SCC(=O)NS(=O)(=O)c1ccc2c(c1)OCCO2 | -2.48%
58 | CSCC(=O)NS(=O)(=O)c1ccc2c(c1)OCCO2 | 0.628%
59 | Cc1csc(CNCc2c(C)nn(C)c2N2CCOCC2)n1 | -0.213%
60 | COC(=O)c1cc(C(=O)N2CCCC(C)C2)n(-c2ccccc2)n1 (stereo not given) | -10.2%
61 | Cc1nc(C)n(CC2CCCN2Cc2nc(-c3ccoc3)no2)n1 (stereo not given) | -11.7%
62 | COc1ccccc1COCC(O)CN1CC(n2cccn2)C1 (stereo not given) | -10.8%
63 | CC(C)c1nnc2n1CCN(Cc1ncc(-c3ccccc3)o1)C2 | -10.5%
64 | Cc1cc(C)n(CC2CN(CC(=O)Nc3c(C)n[nH]c3C)CCO2)n1 (stereo not given) | -8.05%
65 | O=c1oc(-c2ccc(F)cc2)nn1CN1CCN(C2CCCC2)CC1 | -9.32%
66 | Cn1ccc(CN2CCC(c3ccccc3)CC2)cc1=O | -8.13%
67 | c1ccc(-c2nc(CNC3CCc4ncnn4C3)co2)cc1 (stereo not given) | 1.4%
68 | Cc1cc(C[S+]([O-])CC(=O)Nc2c(C)cccc2C)no1 (stereo not given) | -8.27%
69 | Cc1cc(C[S+]([O-])CC(=O)NCc2cccs2)no1 (stereo not given) | -4.91%
70 | COc1ccc(-c2nc(CN3CCCC3Cn3cccn3)no2)cc1 (stereo not given) | -0.173%
71 | CC(C(=O)NCc1ccc(N2CCNC(=O)C2)cc1)n1cncn1 (stereo not given) | 4.32%
72 | CC1CN(Cc2nccn2C)CCN1c1ccc2nncn2n1 (stereo not given) | 6.8%

Row | SMILES | cytotoxicity at 70.5 h
73 | COc1cccc(CN2CCN(c3ccc4nncn4n3)C(C)C2)c1 (stereo not given) | 9.6%
74 | Cc1cc(C(=O)NCCN2CCCC(C)C2)nn1C (stereo not given) | -5.9%
75 | CC(C)(C)c1cnc(CN2CCC[C@H]2CO)o1 | 0.665%
76 | CCc1csc(C2CCCN(C(=O)C3=NN(CC)C(=O)CC3)C2)n1 (stereo not given) | 3.39%
77 | CC(C)(C)c1nc(CN2CCCC2CCc2ccccc2)no1 (stereo not given) | 13.1%
78 | COc1c(C2CCCN2C(=O)c2csc(C(C)C)n2)c(C)nn1C (stereo not given) | -12.3%
79 | CC(C)c1nc(C2CCCN2CCc2ccncc2)no1 (stereo not given) | 16.2%
80 | Cc1nc(C)n(C2CCCN(C(=O)CCCOc3ccccc3)C2)n1 (stereo not given) | 3.66%
81 | Cc1cnn(C2CN(Cc3nc(C(C)(C)C)no3)C2)c1 | 20.7%
82 | CCn1cnnc1CNC(=O)N1CCN(c2cccc(OC)c2)CC1 | -6.51%
83 | CCOC(=O)N1CCN(Cc2ccc(OCc3nccn3C)cc2)CC1 | 1.77%
84 | Cn1ncc2c(=O)[nH]c(CN(Cc3cccc(F)c3)C3CC3)nc21 | 1.56%
85 | COc1ccccc1C(O)CNCc1c(C(C)C)nn(C)c1N(C)C (stereo not given) | 13.7%
86 | COC(=O)c1cccn1C1CCN(C(=O)c2cc(C)ccc2O)CC1 | 2.48%
87 | COC(=O)c1cccn1C1CCN(C(=O)c2cc(F)ccc2F)CC1 | -1.51%
88 | CC(C)Cc1cc(NC(=O)c2ccc(=O)[nH]n2)n(C)n1 | -2.14%
89 | Cc1ccc(N(C)C2CCN(C(=O)c3ccsc3)CC2)nn1 | -13.8%
90 | Cc1ccc(NC2CCN(C(=O)c3cccn3C)CC2)nn1 | 32.5%
91 | Cc1ccc(NC2CCN(C(=O)c3ccsc3)CC2)nn1 | -3.84%
92 | CCc1nccn1C1CCCN(C(=O)c2ccc3nncn3c2)C1 (stereo not given) | -6.04%
93 | NC(=O)c1cc(C2CCCN(C(=O)CCc3ccsc3)C2)n[nH]1 (stereo not given) | -2.62%
94 | CCn1cc(CN2CCCN(C(=O)CCCn3cncn3)CC2)cn1 | 1.08%
95 | CCc1cnc(CNc2ccc(C(=O)N3CCCC(C)C3)cc2C)o1 (stereo not given) | -10.4%
96 | O=C(CCc1cscn1)N1CCCC(c2ccn[nH]2)C1 (stereo not given) | -8.08%

Row | SMILES | cytotoxicity at 70.5 h
97 | CN(Cc1nc(N)c2ccccc2n1)C1CCCN(c2cccnn2)C1 (stereo not given) | -5.77%
98 | CCc1nccn1C1CCCN(C(=O)c2ccc3c(c2)OCO3)C1 (stereo not given) | -6.7%
99 | Cc1cc(C(=O)N2CCCCC2C)ccc1NCCCO (stereo not given) | -17.1%
100 | CCN(C(=O)CN(C)C(c1cccc(F)c1)c1ccccn1)C1CC1 (stereo not given) | -5.47%
101 | Cc1nn(C)c(C)c1C1COCCN1C(=O)c1cnc(N)c(Cl)c1 (stereo not given) | -3.52%
102 | Cc1cccc(CC(=O)NCCCOC(C)C)c1 | -10.5%
103 | CCOCC(O)CN1CCN(C(=O)c2ccc(OC)cc2F)CC1 (stereo not given) | -21.8%
104 | Cc1nc(C2CCCN(C(=O)CCCn3cccn3)C2)no1 (stereo not given) | -11.8%
105 | Cc1noc(CN2CCN(Cc3cccs3)CC2)n1 | -25.4%
106 | CNS(=O)(=O)Cc1ccc(CNc2cncc(-n3cccn3)n2)cc1 | -18.1%
107 | CN(Cc1ccsc1)C(=O)c1cccc(NS(C)(=O)=O)c1 | -7.22%
108 | Cc1cccc(CS(=O)(=O)CC(=O)NCCCOC(C)C)c1 | 16.8%
109 | COc1ccccc1CC(=O)NS(C)(=O)=O | -10.7%
110 | CC(NC(=O)NCCCN(C)C)c1ccc2c(c1)CCC(=O)N2 (stereo not given) | -10.2%
111 | Cc1ccc(CNC(=O)NCc2cccnc2N(C)C)s1 | -14.6%
112 | CC(NC(=O)NCc1cc[nH]n1)c1ccc2c(c1)CCC(=O)N2 (stereo not given) | -19.8%
113 | O=C(O)c1cc(NS(=O)(=O)c2cccc(Cl)c2F)ccc1Cl | -5.66%
114 | COC(=O)C(NC(=O)COC1CCCC1)c1cc(F)ccc1F (stereo not given) | -11.6%
115 | COc1cc(CN(C(=O)Nc2cccnc2OC)C2CC2)ccc1O | -19.7%
116 | CCOCC(O)CN1CCN(C(=O)c2cc(F)ccc2C)CC1 (stereo not given) | -18.9%
117 | Cc1cnc(CNC(=O)NCc2cccnc2N(C)C)s1 | -17.2%
118 | O=C(O)c1c[nH]c2cc(NS(=O)(=O)c3cccc(Cl)c3F)ccc12 | -10.1%
119 | COc1ccccc1CC(=O)NS(=O)(=O)c1cncc(Br)c1 | 4.46%
120 | Cc1cnn(CCNCC(=O)NCCOc2ccccc2)c1 | 39.9%
